Measured values from PMC7046553, “Backbone Cyclization and Dimerization of LL-37-Derived Peptides Enhance Antimicrobial Activity and Proteolytic Stability” (Frontiers in Microbiology, 2020).
In brackets after ≈: the same amount, converted by molar mass. Like-named read-outs stand apart in the source and are kept apart here. Where a SMILES comes first, the peptide text is derived from it. Where no end group is shown, it is not given here.

Legend:
[1] = system: Candida albicans ATCC 90028
Experimental: (§1) The three bacterial strains: Escherichia coli ATCC 25922, Pseudomonas aeruginosa ATCC 27853 Staphylococcus aureus ATCC 29213 as well as the fungal strain Candida albicans ATCC 90028 derived from clinical wound infections were obtained from the Department of Clinical Bacteriology at Lund University Hospital.
(§2) Antimicrobial activities of the peptides were evaluated using the two-step microdilution assay ([Strömstedt et al., 2017]), which is designed for testing AMPs without activity-inhibiting components. Briefly, the microbial suspension was washed twice with 10 mM Tris buffer (set to pH 7.4 at 37°C). 96-well plates (U-shaped, untreated polystyrene) were prepared with peptide 2-fold serial dilutions in Tris buffer. The culture density was quantified by OD600, diluted in Tris buffer and 50,000 cells aliquoted to each well in the 96-well plate to a final 100 μl volume. After 5 h of aerobic incubation at 37°C, 5 μl of 20% TSB medium was added to each well (resulting in 1% TSB) and the plates were re-incubated. Growth-inhibition was monitored when controls produced pellet sizes of 2 mm in diameter (close to growth saturation), which equates to 5, 8, 10, and 12 h for E. coli, S. aureus, P. aeruginosa, and C. albicans, respectively. […] The MIC-values in Table 1, are medians from triplicate experiments, while the data presented in the Figure 2 are the same values relative to that of KR-12.

[2] = system: Staphylococcus aureus ATCC 29213; details: ATCC 29213, 5 h
Experimental: as §1, §2

[3] = system: Pseudomonas aeruginosa ATCC 27853
Experimental: as §1, §2

[4] = system: Escherichia coli ATCC 25922; details: ATCC 25922, 5 h
Experimental: as §1, §2

[5] = in vitro; details: 25% human serum
Experimental: Proteolytic stability of the peptides were determined in diluted human serum (1:4 v/v, serum:PBS) at 37°C followed by LC-MS analysis. To examine the intact peptide after serum incubation, aliquots of each incubation mixture were taken at each time point for LC-MS analysis (Figure 5).
Peptide stability was assayed in diluted human serum. 25% human serum was centrifuged at 13,000 rpm for 10 min to remove lipids and the supernatant was collected and incubated at 37°C for 15 min. […] Eighty μl of 6 M urea was added and incubated at 4°C for a further 10 min. 80 μl of 20% TCA was added and incubated at 4°C for a further 10 min. The samples were centrifuged at 13000 g for 10 min and the supernatant was analyzed by LC-MS.

[6] = median of triplicate experiments

Compound	MIC C. albicans ([1]; ATCC 90028, 5 h) [µM]	MIC S. aureus [2] [µM]	MIC P. aeruginosa ([3]; ATCC 27853, 5 h) [µM]	MIC E. coli [4] [µM]	other results
CC[C@H](C)[C@@H]1NC(=O)[C@H](CCCCN)NC(=O)[C@H](CC(=O)O)NC(=O)[C@H](Cc2ccccc2)NC(=O)[C@H](CC(C)C)NC(=O)[C@H](CCCNC(=N)N)NC(=O)CNC(=O)CNC(=O)[C@H](CS)NC(=O)CNC(=O)[C@H](CCCCN)NC(=O)[C@H](CCCNC(=N)N)NC(=O)[C@H]([C@@H](C)CC)NC(=O)[C@H](C(C)C)NC(=O)[C@H](CCC(N)=O)NC(=O)[C@H](CCCNC(=N)N)NC(=O)[C@H]([C@@H](C)CC)NC(=O)[C@H](CCCCN)NC(=O)[C@H](CC(=O)O)NC(=O)[C@H](Cc2ccccc2)NC(=O)[C@H](CC(C)C)NC(=O)[C@H](CCCNC(=N)N)NC(=O)CNC(=O)CNC(=O)[C@H](C)NC(=O)CNC(=O)[C@H](CCCCN)NC(=O)[C@H](CCCNC(=N)N)NC(=O)[C@H]([C@@H](C)CC)NC(=O)[C@H](C(C)C)NC(=O)[C@H](CCC(N)=O)NC(=O)[C@H](CCCNC(=N)N)NC1=O [Peptide 2retro-cd4] (cyclo(CGGRLFDKIRQVIRKGAGGRLFDKIRQVIRKG))	2.5 (≈ 9.06 µg/mL)	1.25 (≈ 4.53 µg/mL)	1.25 (≈ 4.53 µg/mL)	0.625 (≈ 2.27 µg/mL)	–
CC[C@H](C)[C@@H]1NC(=O)[C@H](CCCNC(=N)N)NC(=O)[C@H](CCC(N)=O)NC(=O)[C@H](C(C)C)NC(=O)[C@H]([C@@H](C)CC)NC(=O)[C@H](CCCNC(=N)N)NC(=O)[C@H](CCCCN)NC(=O)[C@H](C)NC(=O)CNC(=O)[C@H](CCCNC(=N)N)NC(=O)[C@H](CC(C)C)NC(=O)[C@H](Cc2ccccc2)NC(=O)[C@H](CC(=O)O)NC(=O)[C@H](CCCCN)NC(=O)[C@H]([C@@H](C)CC)NC(=O)[C@H](CCCNC(=N)N)NC(=O)[C@H](CCC(N)=O)NC(=O)[C@H](C(C)C)NC(=O)[C@H]([C@@H](C)CC)NC(=O)[C@H](CCCNC(=N)N)NC(=O)[C@H](CCCCN)NC(=O)[C@H](C)NC(=O)CNC(=O)[C@H](CCCNC(=N)N)NC(=O)[C@H](CC(C)C)NC(=O)[C@H](Cc2ccccc2)NC(=O)[C@H](CC(=O)O)NC(=O)[C@H](CCCCN)NC1=O [cd2] (cyclo(AKRIVQRIKDFLRGAKRIVQRIKDFLRG))	–	1.25 (≈ 4.21 µg/mL)	0.625 (≈ 2.1 µg/mL)	0.625 (≈ 2.1 µg/mL)	remaining at 6 h ([5]; human): ~30%
CC[C@H](C)[C@@H]1NC(=O)[C@H](CCCNC(=N)N)NC(=O)[C@H](CCC(N)=O)NC(=O)[C@H](C(C)C)NC(=O)[C@H]([C@@H](C)CC)NC(=O)[C@H](CCCNC(=N)N)NC(=O)[C@H](CCCCN)NC(=O)CNC(=O)[C@H](C)NC(=O)CNC(=O)[C@H](CCCNC(=N)N)NC(=O)[C@H](CC(C)C)NC(=O)[C@H](Cc2ccccc2)NC(=O)[C@H](CC(=O)O)NC(=O)[C@H](CCCCN)NC(=O)[C@H]([C@@H](C)CC)NC(=O)[C@H](CCCNC(=N)N)NC(=O)[C@H](CCC(N)=O)NC(=O)[C@H](C(C)C)NC(=O)[C@H]([C@@H](C)CC)NC(=O)[C@H](CCCNC(=N)N)NC(=O)[C@H](CCCCN)NC(=O)CNC(=O)[C@H](C)NC(=O)CNC(=O)[C@H](CCCNC(=N)N)NC(=O)[C@H](CC(C)C)NC(=O)[C@H](Cc2ccccc2)NC(=O)[C@H](CC(=O)O)NC(=O)[C@H](CCCCN)NC1=O [cd3] (cyclo(AGKRIVQRIKDFLRGAGKRIVQRIKDFLRG))	1.25 (≈ 4.35 µg/mL)	1.25 (≈ 4.35 µg/mL)	0.625 (≈ 2.17 µg/mL)	0.625 (≈ 2.17 µg/mL)	–
CC(C)C[C@@H]1NC(=O)CNC(=O)[C@H](CC(N)=O)NC(=O)[C@H](CCCNC(=N)N)NC(=O)[C@H]([C@@H](C)O)NC(=O)[C@@H]2CSSC[C@@H]3NC(=O)[C@H]([C@@H](C)O)NC(=O)CNC(=O)CNC(=O)[C@H](C(C)C)NC(=O)[C@@H]4CSSC[C@H](NC(=O)[C@H]([C@@H](C)O)NC(=O)[C@H](CSSC[C@H](NC(=O)[C@H](C(C)C)NC(=O)[C@@H]5CCCN5C1=O)C(=O)NCC(=O)N[C@@H](CCC(=O)O)C(=O)N[C@@H]([C@@H](C)O)C(=O)N4)NC(=O)CNC(=O)[C@@H]1CCCN1C(=O)[C@H]([C@@H](C)O)NC(=O)[C@H](CC(N)=O)NC3=O)C(=O)N[C@@H](CO)C(=O)N[C@@H](Cc1c[nH]c3ccccc13)C(=O)N1CCC[C@H]1C(=O)N[C@@H](C(C)C)C(=O)N2 [kalata B1, reference compound]	–	–	–	–	remaining at 24 h ([5]; human): 80%
CC[C@H](C)[C@@H]1NC(=O)[C@H](CCCCN)NC(=O)[C@H](CC(=O)O)NC(=O)[C@H](Cc2ccccc2)NC(=O)[C@H](CC(C)C)NC(=O)[C@H](CCCNC(=N)N)NC(=O)[C@H](C)NC(=O)CNC(=O)[C@H](CCCNC(=N)N)NC(=O)[C@H](CC(C)C)NC(=O)[C@H](Cc2ccccc2)NC(=O)[C@H](CC(=O)O)NC(=O)[C@H](CCCCN)NC(=O)[C@H]([C@@H](C)CC)NC(=O)[C@H](CCCNC(=N)N)NC(=O)[C@H](CCC(N)=O)NC(=O)[C@H](C(C)C)NC(=O)[C@H]([C@@H](C)CC)NC(=O)[C@H](CCCNC(=N)N)NC(=O)[C@H](CCCCN)NC(=O)[C@H](C)NC(=O)CNC(=O)[C@H](CCCCN)NC(=O)[C@H](CCCNC(=N)N)NC(=O)[C@H]([C@@H](C)CC)NC(=O)[C@H](C(C)C)NC(=O)[C@H](CCC(N)=O)NC(=O)[C@H](CCCNC(=N)N)NC1=O [retro-cd2] (cyclo(AKRIVQRIKDFLRGARLFDKIRQVIRKG))	2.5 (≈ 8.41 µg/mL)	1.25 (≈ 4.21 µg/mL)	1.25 (≈ 4.21 µg/mL)	0.625 (≈ 2.1 µg/mL)	–
CC[C@H](C)[C@@H]1NC(=O)[C@H](CCCCN)NC(=O)[C@H](CC(=O)O)NC(=O)[C@H](Cc2ccccc2)NC(=O)[C@H](CC(C)C)NC(=O)[C@H](CCCNC(=N)N)NC(=O)CNC(=O)[C@H](C)NC(=O)CNC(=O)[C@H](CCCNC(=N)N)NC(=O)[C@H](CC(C)C)NC(=O)[C@H](Cc2ccccc2)NC(=O)[C@H](CC(=O)O)NC(=O)[C@H](CCCCN)NC(=O)[C@H]([C@@H](C)CC)NC(=O)[C@H](CCCNC(=N)N)NC(=O)[C@H](CCC(N)=O)NC(=O)[C@H](C(C)C)NC(=O)[C@H]([C@@H](C)CC)NC(=O)[C@H](CCCNC(=N)N)NC(=O)[C@H](CCCCN)NC(=O)CNC(=O)[C@H](C)NC(=O)CNC(=O)[C@H](CCCCN)NC(=O)[C@H](CCCNC(=N)N)NC(=O)[C@H]([C@@H](C)CC)NC(=O)[C@H](C(C)C)NC(=O)[C@H](CCC(N)=O)NC(=O)[C@H](CCCNC(=N)N)NC1=O [retro-cd3] (cyclo(AGKRIVQRIKDFLRGAGRLFDKIRQVIRKG))	2.5 (≈ 8.7 µg/mL)	1.25 (≈ 4.35 µg/mL)	1.25 (≈ 4.35 µg/mL)	1.25 (≈ 4.35 µg/mL)	–
CC[C@H](C)[C@@H]1NC(=O)[C@H](CCCCN)NC(=O)[C@H](CC(=O)O)NC(=O)[C@H](Cc2ccccc2)NC(=O)[C@H](CC(C)C)NC(=O)[C@H](CCCNC(=N)N)NC(=O)CNC(=O)CNC(=O)[C@H](C)NC(=O)CNC(=O)[C@H](CCCNC(=N)N)NC(=O)[C@H](CC(C)C)NC(=O)[C@H](Cc2ccccc2)NC(=O)[C@H](CC(=O)O)NC(=O)[C@H](CCCCN)NC(=O)[C@H]([C@@H](C)CC)NC(=O)[C@H](CCCNC(=N)N)NC(=O)[C@H](CCC(N)=O)NC(=O)[C@H](C(C)C)NC(=O)[C@H]([C@@H](C)CC)NC(=O)[C@H](CCCNC(=N)N)NC(=O)[C@H](CCCCN)NC(=O)CNC(=O)CNC(=O)[C@H](C)NC(=O)CNC(=O)[C@H](CCCCN)NC(=O)[C@H](CCCNC(=N)N)NC(=O)[C@H]([C@@H](C)CC)NC(=O)[C@H](C(C)C)NC(=O)[C@H](CCC(N)=O)NC(=O)[C@H](CCCNC(=N)N)NC1=O [retro-cd4] (cyclo(AGGKRIVQRIKDFLRGAGGRLFDKIRQVIRKG))	–	–	–	–	MIC C. albicans [1, 6]: 2.5 µM (≈ 8.98 µg/mL); MIC P. aeruginosa [3, 6]: 0.625 µM (≈ 2.25 µg/mL)
CGGKRIVQRIKDFLRGAGGRLFDKIRQVIRKG-NH2 (C-terminus assumed) [retro-ld4*]	0.625	1.25	0.625	0.625	fold lower MIC compared to KR-12, C. albicans [1]: 16 fold
RLFDKIRQVIRK [retro-KR-12]	5	10	10	5	detection in serum after 20 min ([5]; 37°C): could not be detected; remaining at 10 min ([5]; human): ~20%
